Measurements as given in patent US9896445B2, “Heterocyclic inhibitors of ERK1 and ERK2 and their use in the treatment of cancer” (Asana Biosciences, LLC, priority 2015, dated 2018).

Key:
[1] = biological target: T1, ERK1 (Homo sapiens, UniProt P27361); test: ERK1 HTRF (biochemical) assay; settings: HTRF
T1 construct: purchased Jubilant Biosys
Experimental: ERK1 and ERK2 HTRF (Biochemical) Assays
These assays employed a homogeneous time resolved fluorescence (HTRF) technique. […] The plate was incubated at room temperature for 60 min with shaking. […] The IC50 values (half maximal inhibitory concentration values) were subsequently determined using a sigmoidal dose-response curve (variable slope) in GraphPad Prism® 5 software.

[2] = biological target: T2, ERK2 (Homo sapiens, UniProt P28482); test: ERK2 HTRF (biochemical) assay; settings: HTRF
T2 construct: purchased Jubilant Biosys
Procedure, shortened: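 Compounds were tested as half-log dilutions from 0.0005 to 10 uM in Tris pH 7.5/MgCl2 buffer, with a substrate mix of 1 uM biotin-MBP peptide and 24 uM ATP and an enzyme mix of 25 nM ERK2. Reaction ran 60 min at room temperature. Phospho-MBP was detected by HTRF (Eu-anti-phospho-MBP/SA-APC, 665/620 nm), and IC50 was fitted with a variable-slope sigmoidal curve.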

T2 sequence (P28482 whole entry): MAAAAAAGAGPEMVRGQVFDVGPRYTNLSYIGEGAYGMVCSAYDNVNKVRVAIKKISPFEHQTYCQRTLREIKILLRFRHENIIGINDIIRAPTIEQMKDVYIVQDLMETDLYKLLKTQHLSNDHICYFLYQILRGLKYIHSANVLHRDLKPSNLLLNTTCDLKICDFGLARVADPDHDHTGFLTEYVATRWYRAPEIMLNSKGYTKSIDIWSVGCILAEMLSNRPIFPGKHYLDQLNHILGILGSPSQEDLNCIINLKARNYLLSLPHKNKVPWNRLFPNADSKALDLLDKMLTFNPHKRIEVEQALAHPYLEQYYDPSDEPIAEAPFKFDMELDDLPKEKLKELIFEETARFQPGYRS
T1 sequence (P27361 whole entry): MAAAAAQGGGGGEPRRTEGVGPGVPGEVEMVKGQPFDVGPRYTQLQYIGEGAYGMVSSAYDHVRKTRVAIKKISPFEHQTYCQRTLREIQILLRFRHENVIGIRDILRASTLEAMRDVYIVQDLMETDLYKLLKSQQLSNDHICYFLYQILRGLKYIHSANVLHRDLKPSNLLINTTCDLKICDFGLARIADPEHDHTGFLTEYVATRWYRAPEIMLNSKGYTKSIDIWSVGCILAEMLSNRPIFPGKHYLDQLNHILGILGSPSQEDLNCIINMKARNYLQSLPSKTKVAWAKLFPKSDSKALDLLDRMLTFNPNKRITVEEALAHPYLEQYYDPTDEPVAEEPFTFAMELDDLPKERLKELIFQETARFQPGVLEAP

Compound | IC50 [1] | IC50 [2]
O=C(NC(CO)c1cccc(Cl)c1)c1ccn(-c2ccnc(NC3CCNC3)c2)c1 (stereo not drawn) [Compound 145, N-(1-(3-chloro-phenyl)-2-hydroxy-ethyl)-1-(2-(pyrrolidin-3-ylamino)pyridin-4-yl)-1H-pyrrole-3-carboxamide] | > 2500 nM | 500 to 2500 nM
CC[C@@H](CO)Nc1ncc(C)c(-n2ccc(C(=O)NC(CO)c3cccc(Cl)c3)c2)n1 (stereo partly drawn) [Compound 146, N-(1-(3-chloro-phenyl)-2-hydroxy-ethyl)-1-(2-(((S)-1-hydroxybutan-2-yl)amino)-5-methylpyrimidin-4-yl)-1H-pyrrole-3-carboxamide] | < 50 nM | ≤ 50 nM
Cc1cnc(NC(CO)CO)nc1-n1ccc(C(=O)NC(CO)c2ccccc2)c1 (stereo not drawn) [Compound 147, 1-(2-((1,3-dihydroxypropan-2-yl)amino)-5-methylpyrimidin-4-yl)-N-(2-hydroxy-1-phenylethyl)-1H-pyrrole-3-carboxamide] | 50 to 100 nM | ≤ 50 nM
COc1ccc(Nc2ncc(C)c(-n3ccc(C(=O)NC(CO)c4ccccc4)c3)n2)cc1OCCN1CCN(C)CC1 (stereo not drawn) [Compound 148, N-(2-hydroxy-1-phenylethyl)-1-(2-((4-methoxy-3-(2-(4-methylpiperazin-1-yl)ethoxy)-phenyl)amino)-5-methylpyrimidin-4-yl)-1H-pyrrole-3-carboxamide] | < 50 nM | ≤ 50 nM
Cc1cnc(Nc2ccc(F)cc2Cl)nc1-n1ccc(C(=O)NC(COC(=O)C(N)CC(C)C)c2ccccc2)c1 (stereo not drawn) [Compound 150, 2-(1-(2-((2-chloro-4-fluorophenyl)-amino)-5-methyl-pyrimidin-4-yl)-1H-pyrrole-3-carboxamido)-2-phenylethyl 2-amino-4-methyl-pentanoate] | 100 to 500 nM | ≤ 50 nM
Cc1cnc(NC2CCOC2)nc1-n1ccc(C(=O)N[C@H](CO)c2cccc(Cl)c2)c1 (stereo partly drawn) [Compound 151, N-((S)-1-(3-chlorophenyl)-2-hydroxyethyl)-1-(5-methyl-2-((tetrahydrofuran-3-yl)amino)pyrimidin-4-yl)-1H-pyrrole-3-carboxamide] | < 50 nM | ≤ 50 nM
Cc1cnc(NC2CCCOC2)nc1-n1ccc(C(=O)N[C@H](CO)c2cccc(Cl)c2)c1 (stereo partly drawn) [Compound 152, N-((S)-1-(3-chlorophenyl)-2-hydroxyethyl)-1-(5-methyl-2-((tetrahydro-2H-pyran-3-yl)amino)pyrimidin-4-yl)-1H-pyrrole-3-carboxamide] | < 50 nM | ≤ 50 nM
Cc1cnc(Nc2ccc(F)cc2)nc1-n1cc(C(=O)NC(CO)c2ccccc2)nc1C (stereo not drawn) [Compound 153, 1-(2-((4-Fluorophenyl)amino)-5-methylpyrimidin-4-yl)-N-(2-hydroxy-1-phenylethyl)-2-methyl-1H-imidazole-4-carboxamide] | 100 to 500 nM | 100 to 500 nM
COc1cc(Nc2ncc(C)c(-n3ccc(C(=O)NC(CO)c4ccccc4)c3)n2)ccc1F (stereo not drawn) [Compound 154, 1-(2-((4-fluoro-3-methoxyphenyl)amino)-5-methyl-pyrimidin-4-yl)-N-(2-hydroxy-1-phenylethyl)-1H-pyrrole-3-carboxamide] | < 50 nM | ≤ 50 nM
Cc1cnc(Nc2ccc(F)cc2)nc1-n1cnc(C(=O)NC(CO)c2cccc(Cl)c2)c1 (stereo not drawn) [Compound 155, N-(1-(3-chlorophenyl)-2-hydroxyethyl)-1-(2-((4-fluoro-phenyl)amino)-5-methylpyrimidin-4-yl)-1H-imidazole-4-carboxamide] | < 50 nM | ≤ 50 nM
Cc1cnc(NC2CCCOC2)nc1-n1ccc(C(=O)N[C@H](CO)c2cccc(Cl)c2)c1 (stereo partly drawn) [Compound 156, N-((S)-1-(3-chloro-phenyl)-2-hydroxy-ethyl)-1-(5-methyl-2-((tetrahydro-2H-pyran-3-yl)amino)-pyrimidin-4-yl)-1H-pyrrole-3-carboxamide] | < 50 nM | ≤ 50 nM
Cc1cnc(NC2CCOC2)nc1-n1ccc(C(=O)N[C@H](CO)c2ccc(F)c(Cl)c2)c1 (stereo partly drawn) [Compound 157, N-((S)-1-(3-chloro-4-fluorophenyl)-2-hydroxyethyl)-1-(5-methyl-2-((tetrahydrofuran-3-yl)amino)pyrimidin-4-yl)-1H-pyrrole-3-carboxamide] | < 50 nM | ≤ 50 nM
CC(=O)NCC(NC(=O)c1ccn(-c2nc(Nc3ccc4c(c3)OC(F)(F)O4)ncc2C)c1)c1cccc(Cl)c1 (stereo not drawn) [Compound 158, N-(2-acetamido-1-(3-chlorophenyl)-ethyl)-1-(2-((2,2-difluorobenzo[d] [1,3]dioxol-5-yl)-amino)-5-methyl-pyrimidin-4-yl)-1H-pyrrole-3-carboxamide] | 100 to 500 nM | 50 to 100 nM
Cc1cnc(Nc2cccc3c2OC(F)(F)O3)nc1-n1ccc(C(=O)NC(CO)c2cccc(Cl)c2)c1 (stereo not drawn) [Compound 160, N-(1-(3-chloro-phenyl)-2-hydroxy-ethyl)-1-(2-((2,2-difluoro-benzo[d][1,3]dioxol-4-yl)amino)-5-methylpyrimidin-4-yl)-1H-pyrrole-3-carboxamide] | < 50 nM | ≤ 50 nM
Cc1cnc(N[C@H]2CCOC2)nc1-n1ccc(C(=O)N[C@H](CO)c2cccc(Cl)c2)c1 [Compound 161, N-((S)-1-(3-chlorophenyl)-2-hydroxyethyl)-1-(5-methyl-2-(((S)-tetrahydrofuran-3-yl)amino)pyrimidin-4-yl)-1H-pyrrole-3-carboxamide] | < 50 nM | ≤ 50 nM
Cc1cnc(N[C@@H]2CCOC2)nc1-n1ccc(C(=O)N[C@H](CO)c2cccc(Cl)c2)c1 [Compound 162, N-((S)-1-(3-chlorophenyl)-2-hydroxyethyl)-1-(5-methyl-2-(((R)-tetrahydrofuran-3-yl)amino)pyrimidin-4-yl)-1H-pyrrole-3-carboxamide] | < 50 nM | ≤ 50 nM
O=C(NC(CO)c1cccc(Cl)c1)c1cn(-c2ccnc(Nc3ccc4c(c3)CCO4)c2)cn1 (stereo not drawn) [Compound 163, N-(1-(3-chlorophenyl)-2-hydroxyethyl)-1-(2-((2,3-dihydrobenzofuran-5-yl)amino)pyridin-4-yl)-1H-imidazole-4-carboxamide] | < 50 nM | ≤ 50 nM
Cc1cnc(Nc2ccc(F)cc2)cc1-n1ccc(C(=O)NC(CN)c2ccc(F)c(Cl)c2)c1 (stereo not drawn) [Compound 164, N-(2-amino-1-(3-chloro-4-fluoro-phenyl)ethyl)-1-(2-((4-fluorophenyl)-amino)-5-methyl-pyridin-4-yl)-1H-pyrrole-3-carboxamide] | < 50 nM | ≤ 50 nM
Cc1cnc(NC2CCOC2)cc1-n1ccc(C(=O)NC(CO)c2cccc(Cl)c2)c1 (stereo not drawn) [Compound 165, N-(1-(3-chloro-phenyl)-2-hydroxyethyl)-1-(5-methyl-2-((tetrahydrofuran-3-yl)amino)pyridin-4-yl)-1H-pyrrole-3-carboxamide] | < 50 nM | ≤ 50 nM
Cc1cnc(Nc2ccc(F)cc2Cl)nc1-n1cnc(C(=O)NC(CO)c2cccc(Cl)c2)c1 (stereo not drawn) [Compound 166, 1-(2-((2-chloro-4-fluorophenyl)amino)-5-methyl-pyrimidin-4-yl)-N-(1-(3-chlorophenyl)-2-hydroxyethyl)-1H-imidazole-4-carboxamide] | < 50 nM | ≤ 50 nM
CC[C@H](CO)Nc1ncc(C)c(-n2ccc(C(=O)NC(CO)c3cccc(Cl)c3)c2)n1 (stereo partly drawn) [Compound 167, N-(1-(3-chloro-phenyl)-2-hydroxy-ethyl)-1-(2-(((R)-1-hydroxybutan-2-yl)amino)-5-methylpyrimidin-4-yl)-1H-pyrrole-3-carboxamide] | < 50 nM | ≤ 50 nM
